# Measured values taken from patent US20160242416A1, “FUNGICIDAL ISOXAZOLINE CARBINOLS” (E I DU PONT DE NEMOURS AND COMPANY, priority 2015, published 2016).
# Legend:
# Stagonospora nodorum = test: Test D: wheat glume blotch, preventive spray on wheat seedlings; details: 100 = 100% disease control; for Test D rating (% disease control): 10 ppm, wheat glume blotch, 0 = no control; for Test D disease control rating: 10 ppm test solution, 0 = no control relative to controls
# [1] = system: Puccinia recondita f sp. tritici; test: Test F: wheat leaf rust, preventive spray on wheat seedlings; details: 100 = 100% disease control; for Test F rating (% disease control): 10 ppm, wheat leaf rust, 0 = no control; for Test F disease control rating: 10 ppm test solution, 0 = no control relative to controls
# Text: (§1) General protocol for preparing test solutions for Tests A-G: the test compounds were first dissolved in acetone in an amount equal to 3% of the final volume and then suspended at the desired concentration (in ppm) in acetone and purified water (50/50 mix by volume) containing 250 ppm of the surfactant PEG400 (polyhydric alcohol esters). The resulting test suspensions were then used in Tests A-G. Compounds were sprayed at a concentration of 50 ppm (*) or 10 ppm to the point of run-off on the test plants, the equivalent of a rate of 200 g/ha or 40 g/ha, respectively.
# The test solution was sprayed to the point of run-off on wheat seedlings. The following day the seedlings were inoculated with a spore suspension of Puccinia recondita f sp. tritici; (the causal agent of wheat leaf rust) and incubated in a saturated atmosphere at 20° C. for 24 h, and then moved to a growth chamber at 20° C. for 6 days, after which time visual disease ratings were made.
# A dash (-) indicates no test results. Compounds with an asterisks (*) were applied at a concentration of 50 ppm, otherwise test solutions were applied at 10 ppm.
# Zymoseptoria tritici = test: Test E: wheat leaf blotch, preventive spray on wheat seedlings; details: 100 = 100% disease control; for Test E rating (% disease control): 10 ppm, wheat leaf blotch, 0 = no control; for Test E disease control rating: 10 ppm test solution, 0 = no control relative to controls
# Text: as §1
# The test solution was sprayed to the point of run-off on wheat seedlings. The following day the seedlings were inoculated with a spore suspension of Zymoseptoria tritici (the causal agent of wheat leaf blotch) and incubated in a saturated atmosphere at 24° C. for 48 h, and then moved to a growth chamber at 20° C. for 17 days, after which time visual disease ratings were made.
# Compounds with an asterisks (*) were applied at a concentration of 50 ppm, otherwise test solutions were applied at 10 ppm.
# Botrytis cinerea = test: Test B: gray mold, preventive spray on tomato seedlings; details: 100 = 100% disease control; for Test B rating (% disease control): 10 ppm, gray mold on tomato, 0 = no control; for Test B disease control rating: 10 ppm test solution, 0 = no control relative to controls
# [2] = system: Erysiphe graminis f sp. tritici; test: Test G: wheat powdery mildew, preventive spray on wheat seedlings; details: 100 = 100% disease control; for Test G rating (% disease control): 10 ppm, wheat powdery mildew, 0 = no control; for Test G disease control rating: 10 ppm test solution, 0 = no control relative to controls
SMILES,Test D rating (% disease control) (Stagonospora nodorum),Test F rating (% disease control) [1],Test E rating (% disease control) (Zymoseptoria tritici),Test B rating (% disease control) (Botrytis cinerea),Test G rating (% disease control) [2],Test D disease control rating (Stagonospora nodorum),Test F disease control rating [1],Test E disease control rating (Zymoseptoria tritici),Test B disease control rating (Botrytis cinerea),Test G disease control rating [2]
"CS(=O)(=O)c1ccc(C2CC(C(O)(Cn3cncn3)c3ccc(Cl)cc3)=NO2)cc1 (single isomer, unassigned) [Compound 113]",0%,100%,9%,0%,98%,–,–,–,–,–
"CC(C)(C)C(O)(Cn1cncn1)C1=NOC(COc2ccc(Cl)nc2)C1 (single isomer, unassigned) [Compound 97]",99%,98%,0%,0%,94%,–,–,–,–,–
"CCC(C)(C)C(O)(Cn1cncn1)C1=NOC(COc2ccc(Cl)cc2)C1 (single isomer, unassigned) [Compound 186]",100%,100%,66%,99%,100%,–,–,–,–,–
"CC(C)(C)C(O)(Cn1cncn1)C1=NOC(Cn2ccc(C(F)(F)F)n2)C1 (single isomer, unassigned) [Compound 49]",82%,99%,0%,11%,99%,–,–,–,–,–
"CC1(COc2ccc(Cl)cc2)CC(C(O)(Cn2cncn2)c2ccc(Cl)cc2)=NO1 (single isomer, unassigned) [Compound 219]",–,–,–,–,–,0%,95%,0%,0%,–
"CC1(COc2ccc(Cl)cc2)CC(C(O)(Cn2cncn2)c2ccc(Cl)cc2)=NO1 (single isomer, unassigned) [Compound 218]",–,–,–,–,–,21%,100%,0%,0%,–
"CC#CC(O)(Cn1cncn1)C1=NOC(c2ccc(Cl)cc2)C1 (stereo not drawn) [Compound 103, α-[5-(4-chlorophenyl)-4,5-dihydro-3-isoxazolyl]-α-1-propyn-1-yl-1H-1,2,4-triazole-1-ethanol]",–,94%,0%,0%,92%,–,–,–,–,–
"OC(Cn1cncn1)(C1=NOC(COc2ccccc2)C1)c1ccc(Cl)cc1 (single isomer, unassigned) [Compound 145]",–,–,28%,0%,88%,–,–,–,–,–
"CC1(COc2ccc(Cl)cc2)CC(C(O)(Cn2cncn2)C(C)(C)C)=NO1 (single isomer, unassigned) [Compound 217]",–,–,–,–,–,92%,100%,0%,0%,–
"OC(Cn1cncn1)(C1=NOC(COc2ncc(Cl)cn2)C1)c1ccc(Cl)cc1 (single isomer, unassigned) [Compound 167]",0%,98%,0%,0%,–,–,–,–,–,–
"OC(Cn1cncn1)(C1=NOC(COc2ncc(Cl)cn2)C1)c1ccc(Cl)cc1 (single isomer, unassigned) [Compound 166]",0%,41%,0%,0%,–,–,–,–,–,–
"CC(C)(C)C(O)(Cn1cncn1)C1=NOC(CCOc2ccc(Cl)cc2)C1 (single isomer, unassigned) [Compound 208]",100%,100%,74%,–,100%,–,–,–,–,–
"CC(C)(C)C(O)(Cn1cncn1)C1=NOC(COCc2ccc(Cl)cc2)C1 (single isomer, unassigned) [Compound 263]",–,–,–,–,–,99%,87%,0%,–,99%
CC(C)(C)C(O)(Cn1cnnn1)C1=NOC(COc2ccc(Cl)cc2)C1 (stereo not shown) [Compound 247],–,–,–,–,–,0%,97%,24%,–,0%
"CC(C)(C)C(O)(Cn1cncn1)C1=NOC(COc2cccc(C(F)(F)F)c2)C1 (single isomer, unassigned) [Compound 254]",–,–,–,–,–,99%,100%,0%,–,99%
"CC(C)(C)CC(O)(Cn1cncn1)C1=NOC(COc2ccc(F)cc2)C1 (single isomer, unassigned) [Compound 244]",–,–,–,–,–,99%,100%,0%,–,99%
"CC1(C(O)(Cn2cncn2)C2=NOC(COc3ccc(C(F)(F)F)cc3)C2)CC1 (single isomer, unassigned) [Compound 236]",–,–,–,–,–,99%,100%,16%,–,100%
"CC(C)(C)C(O)(Cn1cncn1)C1=NOC(COc2ccc(Cl)c(Cl)c2)C1 (single isomer, unassigned) [Compound 257]",–,–,–,–,–,100%,100%,29%,–,100%
"COc1ccc(OCC2CC(C(O)(Cn3cncn3)C(C)(C)C)=NO2)cc1 (single isomer, unassigned) [Compound 259]",–,–,–,–,–,99%,92%,0%,–,99%
"CC(C)(C)C(O)(Cn1cncn1)C1=NOC(COc2ccc(Cl)cc2)C1 (single isomer, unassigned) [Compound 242]",–,–,–,–,–,0%,99%,0%,–,68%
"CC1(COc2ccc(Cl)cc2)CC(C(O)(Cn2cncn2)C(C)(C)C)=NO1 (single isomer, unassigned) [Compound 216]",–,–,–,–,–,86%,100%,0%,0%,–
"OC(Cn1cncn1)(C1=NOC(COc2ccc(Cl)cc2)C1)C1CCCCC1 (single isomer, unassigned) [Compound 266]",–,–,–,–,–,100%,100%,0%,–,100%
"CC(C)(C)CC(O)(Cn1cncn1)C1=NOC(COc2ccc(F)cc2)C1 (single isomer, unassigned) [Compound 245]",–,–,–,–,–,51%,98%,2%,–,98%
"CCC(C)(C)C(O)(Cn1cncn1)C1=NOC(COc2ccc(C(F)(F)F)cc2)C1 (single isomer, unassigned) [Compound 261]",–,–,–,–,–,100%,100%,92%,–,100%
"CC(C)(C)C(O)(Cn1cncn1)C1=NOC(COc2ccc(Cl)cc2Cl)C1 (single isomer, unassigned) [Compound 255]",–,–,–,–,–,100%,100%,1%,–,100%
